US4398029A, “Quinoline carboxylic acid derivatives and process for the preparation” (Kyorin Seiyaku Kabushiki Kaisha, priority 1981, dated 1983)
≈ marks a conversion by molar mass, not a printed value. Read-outs that look alike come from different tables or passages of the source.

Tests used:
E. coli ATCC 10536 = experiment: Antibacterial activity (MIC), standard agar dilution streak method; type: cell-based, Escherichia coli; details: for MIC: Escherichia coli, ATCC10536, read-out: Minimum inhibitory concentration
Method: (§1) The antibacterial activities of the compounds of the present invention were assayed by the standard agar dilution streak method against Gram-positive and Gram-negative bacteria [Chemotherapy, 22, 1126 (1974)].

Shigella sonnei IID 969 = experiment: microbe, parasite or virus in culture; type: cell-based; details: Shigella sonnei
Method: as §1

S. aureus Terajima = experiment: Antibacterial activity (MIC), standard agar dilution streak method; type: cell-based, Staphylococcus aureus; details: Staphylococcus aureus; S. aureus Terajima; read-out: Minimum inhibitory concentration
Method: as §1

[1] = tested on: Alcaligenes faecalis 0104002; experiment: as above; type: cell-based; details: for MIC: read-out: Minimum inhibitory concentration
Method: as §1

[2] = tested on: Serratia marcescens IID 618; experiment: as above; type: cell-based; details: for MIC: read-out: Minimum inhibitory concentration
Method: as §1

[3] = tested on: Staphylococcus aureus 209 p; experiment: as above; type: cell-based; details: Staphylococcus aureus 209 p; for MIC: read-out: Minimum inhibitory concentration
Method: as §1

[4] = tested on: Pseudomonas aeruginosa V-1; experiment: as above; type: cell-based; details: read-out: Minimum inhibitory concentration
Method: as §1

P. morganii IID 602 = experiment: as above; type: cell-based; details: Morganella morganii, IID602, P. morganii IID 602; read-out: Minimum inhibitory concentration
Method: as §1

[5] = tested on: Enterobacter cloacae IID 977; experiment: as above; type: cell-based; details: read-out: Minimum inhibitory concentration
Method: as §1

Proteus vulgaris 3167 = experiment: as above; type: cell-based; details: read-out: Minimum inhibitory concentration
Method: as §1

[6] = tested on: Citrobacter freundii IID 976; experiment: as above; type: cell-based; details: read-out: Minimum inhibitory concentration
Method: as §1

[7] = tested on: Escherichia coli NIHJ JC-2; experiment: as above; type: cell-based; details: for MIC: read-out: Minimum inhibitory concentration
Method: as §1

[8] = tested on: Klebsiella pneumoniae IFO 3512; experiment: as above; type: cell-based; details: read-out: Minimum inhibitory concentration
Method: as §1

P. mirabilis IID 994 = experiment: as above; type: cell-based; details: Proteus mirabilis, IID994; P. mirabilis IID 994; read-out: Minimum inhibitory concentration
Method: as §1

[9] = tested on: Salmonella enteritidis IID 604; experiment: as above; type: cell-based; details: Salmonella enterica; Salmonella enteritidis IID 604; read-out: Minimum inhibitory concentration
Method: as §1

[10] = tested on: Acinetobacter anitratus IID 876; experiment: as above; type: cell-based; details: Acinetobacter calcoaceticus, IID876, read-out: Minimum inhibitory concentration
Method: as §1

S. epidermidis IID 866 = experiment: as above; type: cell-based; details: Staphylococcus epidermidis, IID866, read-out: Minimum inhibitory concentration
Method: as §1

[11] = tested on: Yersinia enterocolitica IID 981; experiment: as above; type: cell-based; details: read-out: Minimum inhibitory concentration
Method: as §1

[12] = tested on: Bacillus subtilis PCI 219; experiment: as above; type: cell-based; details: PCI219; Bacillus subtilis PCI 219; read-out: Minimum inhibitory concentration
Method: as §1

P. aeruginosa IFO 12689 = experiment: as above; type: cell-based, Pseudomonas aeruginosa; details: Pseudomonas aeruginosa, IFO12689, P. aeruginosa IFO 12689; read-out: Minimum inhibitory concentration
Method: as §1

[13] = IID969, Shigella sonnei IID 969, read-out: Minimum inhibitory concentration
[14] = Alcaligenes faecalis, 0104002, Alcaligenes faecalis 0104002
[15] = Serratia marcescens, IID618, Serratia marcescens IID 618
[16] = IID977, Enterobacter cloacae IID 977
[17] = Proteus vulgaris, 3167, Proteus vulgaris 3167
[18] = Citrobacter freundii, IID976, Citrobacter freundii IID 976
[19] = Escherichia coli, NIHJJC2, Escherichia coli NIHJ JC-2
[20] = Klebsiella pneumoniae, IFO3512, Klebsiella pneumoniae IFO 3512
[21] = Yersinia enterocolitica, IID981, Yersinia enterocolitica IID 981
[22] = Pseudomonas aeruginosa, V1, Pseudomonas aeruginosa V-1

SMILES | MIC (E. coli ATCC 10536) [µg/mL] | MIC (Shigella sonnei IID 969; [13]) [µg/mL] | MIC (S. aureus Terajima) [µg/mL] | MIC [1, 14] [µg/mL] | MIC [2, 15] [µg/mL] | MIC [3] [µg/mL] | MIC ([4]; V1, Pseudomonas aeruginosa V-1) [µg/mL] | MIC (P. morganii IID 602) [µg/mL] | MIC [5, 16] [µg/mL] | MIC (Proteus vulgaris 3167; [17]) [µg/mL] | MIC [6, 18] [µg/mL] | MIC [7, 19] [µg/mL] | MIC [8, 20] [µg/mL] | MIC (P. mirabilis IID 994) [µg/mL] | MIC [9] [µg/mL] | MIC [10] [µg/mL] | MIC (S. epidermidis IID 866) [µg/mL] | MIC [11, 21] [µg/mL] | MIC [12] [µg/mL] | MIC (P. aeruginosa IFO 12689) [µg/mL] | other results
C=CCN1CCN(c2c(F)cc3c(=O)c(C(=O)O)cn(CC)c3c2F)CC1 [Example 6, 7-(4-Allyl-1-piperazinyl)-1-ethyl-6,8-difluoro-1,4-dihydro-4-oxoquinoline-3-carboxylic acid] | 0.39 (≈ 1.03 µM) | 0.2 (≈ 0.53 µM) | 0.78 (≈ 2.07 µM) | 3.13 (≈ 8.29 µM) | 1.56 (≈ 4.13 µM) | 0.78 (≈ 2.07 µM) | 12.5 (≈ 33.1 µM) | 0.78 (≈ 2.07 µM) | 1.56 (≈ 4.13 µM) | 0.2 (≈ 0.53 µM) | 0.78 (≈ 2.07 µM) | 0.1 (≈ 0.265 µM) | ≤ 0.05 | 0.39 (≈ 1.03 µM) | 1.56 (≈ 4.13 µM) | 0.78 (≈ 2.07 µM) | 0.78 (≈ 2.07 µM) | 0.78 (≈ 2.07 µM) | 0.1 (≈ 0.265 µM) | 25 (≈ 66.2 µM) | 
CCn1cc(C(=O)O)c(=O)c2cc(F)c(N3CCCC(O)C3)c(F)c21 (centres unmarked) [Example 10, 1-Ethyl-6,8-difluoro-1,4-dihydro-7-(3-hydroxy-1-piperidinyl)-4-oxoquinoline-3-carboxylic acid] | 0.78 (≈ 2.21 µM) | 0.78 (≈ 2.21 µM) |  | 3.13 (≈ 8.88 µM) | 3.13 (≈ 8.88 µM) | 0.2 (≈ 0.568 µM) | 25 (≈ 71 µM) | 1.56 (≈ 4.43 µM) | 6.25 (≈ 17.7 µM) | 0.1 (≈ 0.284 µM) | 1.56 (≈ 4.43 µM) |  | 0.1 (≈ 0.284 µM) |  | 6.25 (≈ 17.7 µM) | 1.56 (≈ 4.43 µM) | 0.78 (≈ 2.21 µM) | 1.56 (≈ 4.43 µM) | ≤ 0.05 | 25 (≈ 71 µM) | 
CCn1cc(C(=O)O)c(=O)c2cc(F)c(N3CCN(CCO)CC3)c(F)c21 [Example 8, 1-Ethyl-6,8-difluoro-1,4-dihydro-7-[4-(2-hydroxyethyl)-1-piperazinyl]-4-oxoquinoline-3-carboxylic acid] | 0.2 (≈ 0.524 µM) | 0.1 (≈ 0.262 µM) | 0.78 (≈ 2.05 µM) | 1.56 (≈ 4.09 µM) | 0.78 (≈ 2.05 µM) | 0.78 (≈ 2.05 µM) | 12.5 (≈ 32.8 µM) | 0.78 (≈ 2.05 µM) |  | 0.1 (≈ 0.262 µM) | 0.39 (≈ 1.02 µM) | ≤ 0.05 | ≤ 0.05 | 0.2 (≈ 0.524 µM) | 0.78 (≈ 2.05 µM) | 1.56 (≈ 4.09 µM) | 0.78 (≈ 2.05 µM) | 0.39 (≈ 1.02 µM) | 0.1 (≈ 0.262 µM) | 12.5 (≈ 32.8 µM) | MIC ([5]; Enterobacter cloacae, IID977, Enterobacter cloacae IID 977): 0.39 µg/mL (≈ 1.02 µM)
CCn1cc(C(=O)O)c(=O)c2cc(F)c(N3CCC(O)CC3)c(F)c21 [Example 9, 1-Ethyl-6,8-difluoro-1,4-dihydro-7-(4-hydroxy-1-piperidinyl)-4-oxoquinoline-3-carboxylic acid] |  | 0.2 (≈ 0.568 µM) | 0.2 (≈ 0.568 µM) |  |  |  |  | 0.78 (≈ 2.21 µM) |  | ≤ 0.05 | 0.78 (≈ 2.21 µM) |  | ≤ 0.05 |  | 1.56 (≈ 4.43 µM) | 1.56 (≈ 4.43 µM) | 0.39 (≈ 1.11 µM) | 0.78 (≈ 2.21 µM) | ≤ 0.05 | 12.5 (≈ 35.5 µM) | Minimum inhibitory concentration (E. coli ATCC 10536): 0.20 µg/mL (≈ 0.568 µM); Minimum inhibitory concentration ([1]; Alcaligenes faecalis 0104002): 1.56 µg/mL (≈ 4.43 µM); Minimum inhibitory concentration ([2]; Serratia marcescens IID 618): 1.56 µg/mL (≈ 4.43 µM); Minimum inhibitory concentration [3]: 0.20 µg/mL (≈ 0.568 µM); MIC [4, 22]: 6.25 µg/mL (≈ 17.7 µM); Minimum inhibitory concentration ([7]; Escherichia coli NIHJ JC-2): 0.20 µg/mL (≈ 0.568 µM)
CCCn1cc(C(=O)O)c(=O)c2cc(F)c(N3CCNCC3)c(F)c21.Cl [Example 2, 6,8-Difluoro-1,4-dihydro-4-oxo-7-(1-piperazinyl)-1-n-propylquinoline-3-carboxylic acid hydrochloride] | 0.2 |  | 3.13 |  |  | 1.56 |  | 0.39 | 0.78 |  |  |  |  | 0.1 | 0.2 | 1.56 | 3.13 |  | 0.2 | 6.25 | MIC (Shigella sonnei IID 969; IID969, read-out: Minimum inhibitory concentration): 0.1 µg/mL; MIC ([1]; Alcaligenes faecalis 0104002): 1.56 µg/mL; MIC ([2]; IID618, Serratia marcescens IID 618): 0.39 µg/mL; MIC [4, 22]: 12.5 µg/mL; MIC (Proteus vulgaris 3167; Proteus vulgaris 3167): ≤ 0.05 µg/mL; MIC ([6]; IID976, Citrobacter freundii IID 976): 0.2 µg/mL; MIC ([7]; NIHJJC2, Escherichia coli NIHJ JC-2): ≤ 0.05 µg/mL; MIC ([8]; IFO3512, Klebsiella pneumoniae IFO 3512): 0.1 µg/mL; MIC ([11]; IID981, Yersinia enterocolitica IID 981): 0.39 µg/mL
